Experimental data published in PubChem BioAssay AID1199 (EPA DSSTox, 2008).
Active and inactive are the calls of the source.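 How the source made its calls: active means a tumour-causing dose and a tumour site recorded for mice in at least one sex group; inconclusive means only government mouse studies exist and were judged inadequate; inactive means mouse studies exist but none gave tumours.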

System: mouse carcinogenicity bioassay, TD50 from CPDB
Assay: DSSTox (CPDBAS) Carcinogenic Potency Database Summary Mouse Bioassay Results
Method in brief: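 Values are TD50 carcinogenic potencies from mouse chronic bioassays, taking the most positive result for each sex-species. Sources are published literature and NCI/NTP studies; target sites reflect author-reported positive findings.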

[1] = TD50_Mouse_Note: no positive results, TargetSites_Mouse_Female: no positive results
[2] = TD50_Mouse_Note: TD50 is harmonic mean of more than one positive test, TargetSites_Mouse_Female: stomach
[3] = TargetSites_Mouse_Female: no positive results
[4] = TD50_Mouse_Note: TD50 is harmonic mean of more than one positive test, TargetSites_Mouse_Female: liver

CC(=O)Nc1ccc(CC(=O)O)cc1
outcome [1]: inactive; no positive results

C/C=C/C=C/C=O
Potency [2]: 1.83 mmol/kg/day

CC(C)=CCC/C(C)=C/C=O
outcome [1]: inactive; no positive results

CCNN
Potency (TD50_Mouse_Note: TD50 is harmonic mean of more than one positive test, TargetSites_Mouse_Female: lung, vascular system): 0.0679 mmol/kg/day

COc1ccc(C)cc1N
Potency (TD50_Mouse_Note: TD50 is harmonic mean of more than one positive test, TargetSites_Mouse_Female: liver, urinary bladder): 0.396 mmol/kg/day

Cc1cccn2c1nc1ccc(N)nc12
Potency (TD50_Mouse_Note: TD50 is harmonic mean of more than one positive test, TargetSites_Mouse_Female: liver, vascular system): 0.0272 mmol/kg/day

O=S(=O)([O-])[O-].[Cd+2]
outcome [1]: inactive

CCCCOC(=O)c1ccc(O)cc1
outcome [1]: inactive; no positive results

CCN(CC)C(=O)c1cccc(C)c1
outcome [1]: inactive; no positive results

C=CC(=O)OCC
Potency [2]: 3.24 mmol/kg/day

Cc1[nH]cnc1CSCCN=C(NC#N)N(C)N=O
outcome [1]: inactive

Nc1nc(N)nc(N)n1
outcome [1]: inactive; no positive results

CCC(=O)C(CC(C)N(C)C)(c1ccccc1)c1ccccc1 (stereo not given)
outcome [1]: inactive; no positive results

C=C(C)[C@H]1CC=C(C)CC1
outcome [1]: inactive; no positive results

C=CC
outcome [1]: inactive; no positive results

CCOC(=O)CBr
outcome [1]: inactive

CC1CO1 (stereo not given)
Potency (TD50_Mouse_Note: TD50 is harmonic mean of more than one positive test, TargetSites_Mouse_Female: nasal cavity): 15.7 mmol/kg/day

C=CC(=C)Cl
Potency (TD50_Mouse_Note: TD50 is harmonic mean of more than one positive test, TargetSites_Mouse_Female: ear Zymbals gland, harderian gland, liver, lung, mammary gland, peritoneal cavity, stomach, subcutaneous tissue, vascula): 0.0923 mmol/kg/day

O=C/C=C/c1ccccc1
outcome [1]: inactive; no positive results

O=c1[nH]cc(F)c(=O)[nH]1
Potency (TD50_Mouse_Note: TD50 is harmonic mean of more than one positive test, TargetSites_Mouse_Female: hematopoietic system, lung): 0.0228 mmol/kg/day

C=C(C)CCl
Potency (TD50_Mouse_Note: TD50 is harmonic mean of more than one positive test, TargetSites_Mouse_Female: harderian gland, stomach): 11 mmol/kg/day | Potency [2]: 0.858 mmol/kg/day

CC(=O)OCc1ccccc1
Potency (TD50_Mouse_Note: TD50 is harmonic mean of more than one positive test, TargetSites_Mouse_Female: liver, stomach): 9.59 mmol/kg/day

CCc1nc(N)nc(N)c1-c1ccc(Cl)cc1
outcome [1]: inactive; ntp bioassay inadequate

CCC1CO1 (stereo not given)
outcome [1]: inactive; no positive results

CNC(=O)CSP(=S)(OC)OC
outcome [1]: inactive; no positive results

O=C(O)CC[N+](=O)[O-]
outcome [1]: inactive; no positive results

COP(=S)(OC)Oc1ccc([N+](=O)[O-])cc1
outcome [1]: inactive; no positive results

CCOc1ccc(NC(C)=O)cc1[N+](=O)[O-]
Potency [3]: 10.1 mmol/kg/day

CCCCCCCCS(=O)C(C)Cc1ccc2c(c1)OCO2 (stereo not given)
Potency [3]: 0.192 mmol/kg/day

ClC1=C(Cl)C2(Cl)C3C(Cl)OC(Cl)C3C1(Cl)C2(Cl)Cl (stereo not given)
outcome [1]: inactive; no positive results

ClC(Cl)=C(c1ccc(Cl)cc1)c1ccc(Cl)cc1
Potency [4]: 0.0393 mmol/kg/day

CC(=O)OC1CC(C)OC(C)O1 (stereo not given)
outcome [1]: inactive; no positive results

OCC1CO1 (stereo not given)
Potency (TD50_Mouse_Note: TD50 is harmonic mean of more than one positive test, TargetSites_Mouse_Female: harderian gland, mammary gland, skin, subcutaneous tissue, uterus): 0.468 mmol/kg/day

CC(CCl)OC(C)CCl (stereo not given)
Potency (TD50_Mouse_Note: TD50 is harmonic mean of more than one positive test, TargetSites_Mouse_Female: lung): 1.12 mmol/kg/day

Cn1cc(OCC(O)CNC(C)(C)C)c2ccccc2c1=O (stereo not given)
outcome [1]: inactive; no positive results

NC1CCCCC1
outcome [1]: inactive; no positive results

O=C([O-])C(=O)O.O=C([O-])C(=O)O.[K+].[K+].[O]=[Ti]
outcome [1]: inactive; no positive results

COC(=O)C1=C(C)NC(C)=C(C(=O)OCCc2ccc(N3CCN(C(c4ccccc4)c4ccccc4)CC3)cc2)C1c1cccc([N+](=O)[O-])c1 (stereo not given)
outcome [1]: inactive; no positive results

OCc1ccccc1
outcome [1]: inactive; no positive results

Nc1ccccc1-c1ccccc1
Potency (TargetSites_Mouse_Female: vascular system): 5.45 mmol/kg/day

C=C(C)[C@H]1Cc2c(ccc3c2O[C@@H]2COc4cc(OC)c(OC)cc4[C@@H]2C3=O)O1
outcome [1]: inactive; no positive results

Nc1ccc2ccccc2c1
Potency [4]: 0.275 mmol/kg/day

OCCBr
Potency [2]: 0.609 mmol/kg/day

CCOP(=S)(OCC)SC1OCCOC1SP(=S)(OCC)OCC (stereo not given)
outcome [1]: inactive; no positive results

O=NO
outcome [1]: inactive; no positive results

Nc1c(Cl)cc(Cl)cc1Cl
Potency [3]: 1.32 mmol/kg/day

COc1cc2c(c3c1c(=O)c1ccccc1n3C)C=CC(C)(C)O2
outcome (TD50_Mouse_Note: only experiment is NCI/NTP bioassay inadequate, TargetSites_Mouse_Female: NTP bioassay inadequate): ntp bioassay inadequate

CN(N=O)c1ncnc2c1ncn2[C@@H]1O[C@H](CO)[C@@H](O)[C@H]1O
Potency (TD50_Mouse_Note: TD50 is harmonic mean of more than one positive test, TargetSites_Mouse_Female: lung, mammary gland, uterus): 0.059 mmol/kg/day

CCCCN(CCCC)N=O
Potency: 0.00689 mmol/kg/day

CCC(Br)(CC)C(=O)NC(N)=O
outcome [1]: inactive; no positive results

O=S1OCC2C(CO1)C1(Cl)C(Cl)=C(Cl)C2(Cl)C1(Cl)Cl (stereo not given)
outcome [1]: inactive; no positive results

COC(=O)C(c1ccccc1)C1CCCCN1 (stereo not given)
Potency [4]: 0.371 mmol/kg/day

C1CO1
Potency (TD50_Mouse_Note: TD50 is harmonic mean of more than one positive test, TargetSites_Mouse_Female: harderian gland, hematopoietic system, lung, mammary gland, uterus): 1.45 mmol/kg/day

CCCCN(CCCC)C(=S)[S-].CCCCN(CCCC)C(=S)[S-].[Ni+2]
outcome [1]: inactive; no positive results
